Assay results taken from paper PMC12261228 (ACS Pharmacology & Translational Science, 2025).

How the values were obtained:
CCRF-CEM = assay: MTS cytotoxicity assay, 72 h; type: cell-based; settings: Homo sapiens, CCRF-CEM, 72 h, read-out: IC50 CCRF-CEM, MTS assay, 3-day incubation, mean ± SD of 3 experiments
CEM-DNR = assay: MTS cytotoxicity assay, 72 h; type: cell-based; settings: Homo sapiens, read-out: IC50 CEM-DNR
K562 = assay: MTS cytotoxicity assay, 72 h; type: cell-based; settings: Homo sapiens, K562, 72 h, read-out: IC50 K562
K562-TAX = assay: MTS cytotoxicity assay, 72 h; type: cell-based; settings: read-out: IC50 K562-TAX
HCT116 = assay: MTS cytotoxicity assay, 72 h; type: cell-based; settings: Homo sapiens, HCT-116, 72 h, read-out: IC50 HCT116
HCT116p53–/– = assay: MTS cytotoxicity assay, 72 h; type: cell-based; settings: read-out: IC50 HCT116p53–/–
U2OS = assay: MTS cytotoxicity assay, 72 h; type: cell-based, human; settings: Homo sapiens, U2OS, 72 h, read-out: IC50 U2OS, MTS assay, 3-day incubation, mean ± SD
MRC-5 = assay: MTS cytotoxicity assay, 72 h; type: cell-based; settings: Homo sapiens, MRC5, 72 h, read-out: IC50 MRC-5
BJ = assay: MTS cytotoxicity assay, 72 h; type: cell-based; settings: Homo sapiens, read-out: IC50 BJ
HUVEC = assay: MTS cytotoxicity assay, 72 h; type: cell-based; settings: Homo sapiens, 3-day incubation, mean ± SD
CCRF-CEM lymphoblasts = assay: FACS analysis of cell cycle, apoptosis, mitosis and polyploidy; settings: for Mitosis: phospho-Histone (Ser10); for Apoptosis: sub-G0/G1 DNA content, % of positive cells

| Structure (SMILES) | IC50 (CCRF-CEM) [µM] | IC50 (CEM-DNR) [µM] | IC50 (K562) [µM] | IC50 (K562-TAX) [µM] | IC50 (HCT116) [µM] | IC50 (HCT116p53–/–) [µM] | IC50 (U2OS) [µM] | IC50 (MRC-5) [µM] | IC50 (BJ) [µM] | IC50 (HUVEC) [µM] | RI (resistance index) (panel of cell lines) | SI (selectivity index) (panel of cell lines) | G0/G1 (CCRF-CEM lymphoblasts; 1×IC50, 24 h) [%] | G2/M (CCRF-CEM lymphoblasts; 1×IC50, 24 h) [%] | Polyploid cells (CCRF-CEM lymphoblasts; 1×IC50, 24 h) [%] | S (CCRF-CEM lymphoblasts; 1×IC50, 24 h) [%] | Mitosis (CCRF-CEM lymphoblasts; 1×IC50, 24 h) [%] | Apoptosis (CCRF-CEM lymphoblasts; 1×IC50, 24 h) [%] | G0/G1 (CCRF-CEM lymphoblasts; 5×IC50, 24 h) [%] | Polyploid cells (CCRF-CEM lymphoblasts; 5×IC50, 24 h) [%] | other results |
| --- | --- | --- | --- | --- | --- | --- | --- | --- | --- | --- | --- | --- | --- | --- | --- | --- | --- | --- | --- | --- | --- |
| COc1cc2c(c(OC)c1OC)-c1ccc(OC)c(=O)cc1[C@@H](NC(=O)CCCCCCCCCCC1=C3C(C)=CC(C)=[N+]3[B-](F)(F)n3c(C)cc(C)c31)CC2 [CB2] | 0.33 ± 0.005 | 1.45 ± 0.06 | 0.19 ± 0.04 | 0.58 ± 0.035 | > 50 | > 50 | > 50 | > 50 | > 50 | 0.36 ± 0.035 | 3.90 | >1.66 | 6.59 | 89.19 | 23.67 | 4.22 | 45.60 | 8.51 | 5.2 | 26.18 | cytotoxic activity across the cell line panel (in words) (panel of cell lines): selectively killed/affected suspension cell lines; S (CCRF-CEM lymphoblasts; 5×IC50, 24 h): 1.29%; Mitosis (CCRF-CEM lymphoblasts; 5×IC50, 24 h): 79.51%; Apoptosis (CCRF-CEM lymphoblasts; 5×IC50, 24 h): 13.84% |
| COc1cc2c(c(OC)c1OC)-c1ccc(OC)c(=O)cc1[C@@H](NC(=O)CCCC[N+](C)(C)CCCCC1=C3C(C)=CC(C)=[N+]3[B-](F)(F)n3c(C)cc(C)c31)CC2 [CB3] | 9.33 ± 0.952 | > 50 | 9.5 ± 2.37 | 40.1 ± 1.07 | 31.6 ± 4.54 | 36.4 ± 5.03 | > 50 | > 50 | > 50 | > 50 | >4.79 | >1.83 | 2.89 | 79.08 | 26.03 | 18.03 | 58.58 | 16.41 | 7.84 | 26.25 | cytotoxic activity across the cell line panel (in words) (panel of cell lines): significantly lower; apoptosis in CCRF-CEM cells (CCRF-CEM lymphoblasts; 1× and 5 × IC50, compared with DMSO): 20%; G2/M (CCRF-CEM lymphoblasts; 5×IC50, 24 h): 84.01%; S (CCRF-CEM lymphoblasts; 5×IC50, 24 h): 8.15%; Mitosis (CCRF-CEM lymphoblasts; 5×IC50, 24 h): 57.12%; Apoptosis (CCRF-CEM lymphoblasts; 5×IC50, 24 h): 20.64% |
| COc1cc2c(c(OC)c1OC)-c1ccc(OC)c(=O)cc1[C@@H](n1cc(CCCCCCCCC3=C4C(C)=CC(C)=[N+]4[B-](F)(F)n4c(C)cc(C)c43)[n+](C)n1)CC2 [CB8] | 7.11 ± 1.14 | 6.53 ± 0.458 | 7.83 ± 0.892 | 6.35 ± 0.335 | 8.81 ± 1.94 | 9.36 ± 0.87 | 11.9 ± 1.11 | 22.1 ± 1.22 | 36.9 ± 5.68 | 23.5 ± 1.29 | 0.86 | 3.28 | 8.68 | 80.01 | 23.43 | 11.31 | 5.79 | 11.09 | 9.49 | 20.18 | G2/M (CCRF-CEM lymphoblasts; 5×IC50, 24 h): 87.34%; S (CCRF-CEM lymphoblasts; 5×IC50, 24 h): 3.17%; Mitosis (CCRF-CEM lymphoblasts; 5×IC50, 24 h): 13.33%; Apoptosis (CCRF-CEM lymphoblasts; 5×IC50, 24 h): 3.98% |
| COc1cc(C2=C3C(C)=CC(C)=[N+]3[B-](F)(F)n3c(C)cc(C)c32)ccc1OCc1cn([C@H]2CCc3cc(OC)c(OC)c(OC)c3-c3ccc(OC)c(=O)cc32)n[n+]1C [CB9] | 4.81 ± 0.641 | 6.49 ± 0.639 | 7.69 ± 0.45 | 5.78 ± 0.561 | 8.27 ± 1.43 | 8.56 ± 0.365 | > 50 | > 50 | > 50 | 40.1 ± 2.93 | 0.98 | >3.15 | 12.83 | 60.07 | 29.32 | 27.11 | 32.84 | 8.93 | 19.56 | 26.30 | G2/M (CCRF-CEM lymphoblasts; 5×IC50, 24 h): 48.91%; S (CCRF-CEM lymphoblasts; 5×IC50, 24 h): 31.53%; Mitosis (CCRF-CEM lymphoblasts; 5×IC50, 24 h): 31.00%; Apoptosis (CCRF-CEM lymphoblasts; 5×IC50, 24 h): 14.27% |
